According to patent publication US20260193274A1, “AKT1 MODULATORS” (Alterome Therapeutics, Inc., priority 2022, published 2026):

Target: T1, AKT1-E17K (Homo sapiens, UniProt P31749, E17K)
T1 construct: host or cells: HEK-293 (ATCC CRL-1573)
Experiment: NanoBRET Target Engagement (TE) Assay
Assay type: cell-based
Settings: full length AKT E17K NanoLuc fusion in transfected HEK-293 cells; 2 hr equilibration with tracer and compound
Text: NanoBRET is a highly specific and validated cell-based technique for assessing target engagement (Vasta et al., 2018, Cell Chem Biol. 25(2):206-214). The NanoBRET™ Target Engagement (TE) Intracellular Kinase Assays are based on the NanoBRET™ System (Promega Corporation), an energy transfer technique designed to measure molecular proximity in living cells. The NanoBRET™ TE Assays measure the apparent affinity of test compounds by competitive displacement of the NanoBRET™ tracer compound, which is a cell permeable molecule engineered to be reversibly bound to a NanoLuc® luciferase-kinase fusion expressed in cells. For compound screening, when a test compound binds to the selected kinase, the BRET signal is attenuated. For kinase inhibitors in particular, intracellular target selectivity is fundamental to pharmacological mechanism and allows the proteins of interest to be in the correct cellular confirmation. Although non-cell-based techniques have been developed to measure kinase binding or enzymatic inhibition with accuracy and precision, such approaches can fail to accurately predict engagement of the full-length target protein in the more complex and biologically relevant cellular context (Knight and Shokat, 2005, Chem. Biol. 12, 621-637; Smyth and Collins, 2009, J. Chem. Biol. 2, 131-151). […] Briefly, HEK-293 cells (ATCC Cat #CRL-1573) were used for transfection purposes using FuGENE HD Transfection Reagent (Promega Cat #E2311). All cells were evaluated for viability prior to transfection and optimization of the transfection was done prior to experimentation. Greater than 95% viability was used for all experiments. Following transfection, cells were washed and resuspended in Opti-MEM. NanoBRET assays were performed in white, 384-well plates (Corning) at a density of 2×10^5 cells/well. All example compounds were prepared as concentrated stock solutions in DMSO (Sigma-Aldrich). Compounds are dissolved in DMSO to make 10 mM stock solution. Example compounds were transferred as 40 μL of 10 mM stock solution to a 384 pp-plate (LABCYTE, PP-0200) and diluted in 3-fold, 10-point dilution via transferring […] by Apricot liquid handler. A Labcyte ECHO 550 compound dispenser was used to facilitate compound transfer directly to cells. Cells were equilibrated for 2 hr with energy transfer probes and example compound prior to BRET measurements. The AKTE17K (Promega Cat #NV2421) as well as specific probe (NanoBRET tracer, Promega Cat #N264B) was prepared at a concentration of 20× in tracer dilution buffer (12.5 mM HEPES, 31.25% PEG-400, pH 7.5). For target engagement analysis, the energy transfer probes were added to the cells at concentrations optimized for the target in question (AKT E17K). Following compound incubation, NanoBRET NanoGlo Substrate (Promega Cat #N157D) and Extracellular Nanoluc Inhibitor (Promega Cat #N235C) was added according to the manufacturer's recommended protocol, and luminescence was measured on Envision Reader (Perkin Elmer) Multimode Luminometer equipped with 450 nmBPfilter (donor) and 600 nmLPfilter (acceptor), using 0.5 s integration time. Milli-BRET units (mBU) are calculated by multiplying the raw BRET values by 1000. Apparent tracer affinity values (EC50) were determined using the sigmoidal dose-response (variable slope). Competitive displacement data were then plotted and data were fit to determine the EC50 value for each example compound.

T1 sequence (P31749 whole entry E17K): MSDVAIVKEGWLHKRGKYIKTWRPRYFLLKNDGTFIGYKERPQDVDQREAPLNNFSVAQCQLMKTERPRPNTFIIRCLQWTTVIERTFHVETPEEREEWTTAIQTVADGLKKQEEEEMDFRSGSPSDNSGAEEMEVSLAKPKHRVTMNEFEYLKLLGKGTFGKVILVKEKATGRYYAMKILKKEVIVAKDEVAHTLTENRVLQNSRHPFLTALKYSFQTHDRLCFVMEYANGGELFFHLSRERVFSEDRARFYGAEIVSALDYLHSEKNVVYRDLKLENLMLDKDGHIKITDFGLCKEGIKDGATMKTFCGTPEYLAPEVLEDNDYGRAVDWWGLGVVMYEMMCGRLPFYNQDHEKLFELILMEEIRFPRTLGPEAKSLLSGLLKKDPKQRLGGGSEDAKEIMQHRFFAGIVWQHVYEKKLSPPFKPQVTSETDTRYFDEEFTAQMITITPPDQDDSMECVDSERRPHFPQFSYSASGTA

SMILES	IC50 [nM]
N#CNC1CCN(Cc2ccc(-n3c(-c4cccnc4N)nc4cccnc43)cc2)CC1 [Example 1, N-(1-(4-(2-(2-Aminopyridin-3-yl)-3H-imidazo[4,5-b]pyridin-3-yl)benzyl)piperidin-4-yl)cyanamide]	> 600
N#CN1CCN(Cc2ccc(-n3c(-c4cccnc4N)nc4ccc(-c5ccccc5)nc43)cc2)CC1 [Example 2, 4-(4-(2-(2-Aminopyridin-3-yl)-5-phenyl-3H-imidazo[4,5-b]pyridin-3-yl)benzyl)piperazine-1-carbonitrile]	> 600
N#CNC1CCN(Cc2ccc(-n3c(-c4cccnc4N)nc4ccc(-c5ccccc5)nc43)cc2)CC1 [Example 3, N-(1-(4-(2-(2-Aminopyridin-3-yl)-5-phenyl-3H-imidazo[4,5-b]pyridin-3-yl)benzyl)piperidin-4-yl)cyanamide]	< 15
CC(=O)Nc1cccc(-c2ccc3nc(-c4cccnc4N)n(-c4ccc(CN5CCC(NC#N)CC5)cc4)c3n2)c1 [Example 4, N-(3-(2-(2-Aminopyridin-3-yl)-3-(4-((4-cyanamidopiperidin-1-yl)methyl)phenyl)-3H-imidazo[4,5-b]pyridin-5-yl)phenyl)acetamide]	< 15
N#CN1CC2(C1)CN(Cc1ccc(-n3c(-c4cccnc4N)nc4ccc(-c5ccccc5)nc43)cc1)C2 [Example 5, 6-(4-(2-(2-Aminopyridin-3-yl)-5-phenyl-3H-imidazo[4,5-b]pyridin-3-yl)benzyl)-2,6-diazaspiro[3.3]heptane-2-carbonitrile]	15 to 60
N#CN[C@H]1CCCN(Cc2ccc(-n3c(-c4cccnc4N)nc4ccc(-c5ccccc5)nc43)cc2)C1 [Example 6, (S)—N-(1-(4-(2-(2-Aminopyridin-3-yl)-5-phenyl-3H-imidazo[4,5-b]pyridin-3-yl)benzyl)piperidin-3-yl)cyanamide]	15 to 60
N#CN[C@H]1CCN(Cc2ccc(-n3c(-c4cccnc4N)nc4ccc(-c5ccccc5)nc43)cc2)C1 [Example 7, (S)—N-(1-(4-(2-(2-Aminopyridin-3-yl)-5-phenyl-3H-imidazo[4,5-b]pyridin-3-yl)benzyl)pyrrolidin-3-yl)cyanamide]	< 15
N#CNC1CCC2(CC1)CCN(Cc1ccc(-n3c(-c4cccnc4N)nc4ccc(-c5ccccc5)nc43)cc1)C2 (stereo not shown) [Example 8, N-(2-(4-(2-(2-Aminopyridin-3-yl)-5-phenyl-3H-imidazo[4,5-b]pyridin-3-yl)benzyl)-2-azaspiro[4.5]decan-8-yl)cyanamide]	60 to 600
N#CN[C@@H]1CCCN(Cc2ccc(-n3c(-c4cccnc4N)nc4ccc(-c5ccccc5)nc43)cc2)C1 [Example 9, (R)—N-(1-(4-(2-(2-Aminopyridin-3-yl)-5-phenyl-3H-imidazo[4,5-b]pyridin-3-yl)benzyl)piperidin-3-yl)cyanamide]	15 to 60
N#CN[C@@H]1CCN(Cc2ccc(-n3c(-c4cccnc4N)nc4ccc(-c5ccccc5)nc43)cc2)C1 [Example 10, (R)—N-(1-(4-(2-(2-Aminopyridin-3-yl)-5-phenyl-3H-imidazo[4,5-b]pyridin-3-yl)benzyl)pyrrolidin-3-yl)cyanamide]	< 15
N#CNC1CCN(Cc2ccc(-n3c(-c4cccnc4N)nc4cc(-c5ccccc5)cnc43)cc2)CC1 [Example 11, N-(1-(4-(2-(2-Aminopyridin-3-yl)-6-phenyl-3H-imidazo[4,5-b]pyridin-3-yl)benzyl)piperidin-4-yl)cyanamide]	60 to 600
N#CN1CCCN(Cc2ccc(-n3c(-c4cccnc4N)nc4ccc(-c5ccccc5)nc43)cc2)CC1 [Example 12, 4-(4-(2-(2-Aminopyridin-3-yl)-5-phenyl-3H-imidazo[4,5-b]pyridin-3-yl)benzyl)-1,4-diazepane-1-carbonitrile]	60 to 600
N#CNC1CC2(CCN(Cc3ccc(-n4c(-c5cccnc5N)nc5ccc(-c6ccccc6)nc54)cc3)CC2)C1 [Example 13, N-(7-(4-(2-(2-Aminopyridin-3-yl)-5-phenyl-3H-imidazo[4,5-b]pyridin-3-yl)benzyl)-7-azaspiro[3.5]nonan-2-yl)cyanamide]	< 15
CN(C#N)C1CCN(Cc2ccc(-n3c(-c4cccnc4N)nc4ccc(-c5ccccc5)nc43)cc2)CC1 [Example 14, N-(1-(4-(2-(2-Aminopyridin-3-yl)-5-phenyl-3H-imidazo[4,5-b]pyridin-3-yl)benzyl)piperidin-4-yl)-N-methylcyanamide]	15 to 60
N#CN1CC2(CCN(Cc3ccc(-n4c(-c5cccnc5N)nc5ccc(-c6ccccc6)nc54)cc3)CC2)C1 [Example 15, 7-(4-(2-(2-Aminopyridin-3-yl)-5-phenyl-3H-imidazo[4,5-b]pyridin-3-yl)benzyl)-2,7-diazaspiro[3.5]nonane-2-carbonitrile]	15 to 60
N#CN1CCC2(CCN(Cc3ccc(-n4c(-c5cccnc5N)nc5ccc(-c6ccccc6)nc54)cc3)CC2)C1 [Example 16, 8-(4-(2-(2-Aminopyridin-3-yl)-5-phenyl-3H-imidazo[4,5-b]pyridin-3-yl)benzyl)-2,8-diazaspiro[4.5]decane-2-carbonitrile]	< 15
N#CN1CCC2(CC1)CCN(Cc1ccc(-n3c(-c4cccnc4N)nc4ccc(-c5ccccc5)nc43)cc1)CC2 [Example 17, 9-(4-(2-(2-Aminopyridin-3-yl)-5-phenyl-3H-imidazo[4,5-b]pyridin-3-yl)benzyl)-3,9-diazaspiro[5.5]undecane-3-carbonitrile]	15 to 60

Further lines, results first:

IC50 [nM]	SMILES
60 to 600	N#CN1CC2(CCN(Cc3ccc(-n4c(-c5cccnc5N)nc5ccc(-c6ccccc6)nc54)cc3)C2)C1 [Example 18, 6-(4-(2-(2-Aminopyridin-3-yl)-5-phenyl-3H-imidazo[4,5-b]pyridin-3-yl)benzyl)-2,6-diazaspiro[3.4]octane-2-carbonitrile]
15 to 60	N#CN1CCC2(CCN(Cc3ccc(-n4c(-c5cccnc5N)nc5ccc(-c6ccccc6)nc54)cc3)C2)C1 (stereo not shown) [Example 19, 7-(4-(2-(2-Aminopyridin-3-yl)-5-phenyl-3H-imidazo[4,5-b]pyridin-3-yl)benzyl)-2,7-diazaspiro[4.4]nonane-2-carbonitrile]
15 to 60	N#CN1CCC2(CC1)CCN(Cc1ccc(-n3c(-c4cccnc4N)nc4ccc(-c5ccccc5)nc43)cc1)C2 [Example 20, 2-(4-(2-(2-Aminopyridin-3-yl)-5-phenyl-3H-imidazo[4,5-b]pyridin-3-yl)benzyl)-2,8-diazaspiro[4.5]decane-8-carbonitrile]
> 600	N#CN1CCCC2(CCN(Cc3ccc(-n4c(-c5cccnc5N)nc5ccc(-c6ccccc6)nc54)cc3)C2)C1 (stereo not shown) [Example 21, 2-(4-(2-(2-Aminopyridin-3-yl)-5-phenyl-3H-imidazo[4,5-b]pyridin-3-yl)benzyl)-2,7-diazaspiro[4.5]decane-7-carbonitrile]
60 to 600	N#CN1CCC2(CC1)CN(Cc1ccc(-n3c(-c4cccnc4N)nc4ccc(-c5ccccc5)nc43)cc1)C2 [Example 22, 2-(4-(2-(2-Aminopyridin-3-yl)-5-phenyl-3H-imidazo[4,5-b]pyridin-3-yl)benzyl)-2,7-diazaspiro[3.5]nonane-7-carbonitrile]
< 15	N#CN1CC[C@@]2(CCN(Cc3ccc(-n4c(-c5cccnc5N)nc5ccc(-c6ccccc6)nc54)cc3)C2)C1 [Example 23, (R)-7-(4-(2-(2-Aminopyridin-3-yl)-5-phenyl-3H-imidazo[4,5-b]pyridin-3-yl)benzyl)-2,7-diazaspiro[4.4]nonane-2-carbonitrile]
60 to 600	N#CN1CCCC2(CCN(Cc3ccc(-n4c(-c5cccnc5N)nc5ccc(-c6ccccc6)nc54)cc3)CC2)C1 [Example 24, 9-(4-(2-(2-Aminopyridin-3-yl)-5-phenyl-3H-imidazo[4,5-b]pyridin-3-yl)benzyl)-2,9-diazaspiro[5.5]undecane-2-carbonitrile]
60 to 600	C[C@H]1CN(Cc2ccc(-n3c(-c4cccnc4N)nc4ccc(-c5ccccc5)nc43)cc2)C[C@H](C)N1C#N [Example 25, (2S,6S)-4-(4-(2-(2-Aminopyridin-3-yl)-5-phenyl-3H-imidazo[4,5-b]pyridin-3-yl)benzyl)-2,6-dimethylpiperazine-1-carbonitrile]
